The values that follow come from publication doi:10.1101/2024.04.10.588849v1 (biorxiv, 2024).

This test deals with T1, recombinant human MPST (3-mercaptopyruvate sulfurtransferase) (Homo sapiens, UniProt P25325).
T1 sequence (P25325 1-317 isoform P25325-2): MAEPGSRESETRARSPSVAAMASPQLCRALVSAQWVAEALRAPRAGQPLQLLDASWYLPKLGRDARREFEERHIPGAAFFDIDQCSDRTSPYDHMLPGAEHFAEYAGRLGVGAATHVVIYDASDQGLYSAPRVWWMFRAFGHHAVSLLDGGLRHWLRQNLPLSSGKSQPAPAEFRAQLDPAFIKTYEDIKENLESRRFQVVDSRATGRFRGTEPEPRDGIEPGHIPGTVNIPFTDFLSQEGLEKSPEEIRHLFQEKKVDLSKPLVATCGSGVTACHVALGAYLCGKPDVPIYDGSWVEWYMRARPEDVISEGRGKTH
As to the kind of experiment: isothermal titration calorimetry. The class given is binding.

As to `C[N+](C)(C)[C@@H](Cc1c[nH]c(=S)[nH]1)C(=O)[O-]` [ergothioneine], the dissociation constant Kd is 3.2 µM.
